Non-standard residues stand in square brackets, D forms with d. Residues, ends and D or L forms follow the SMILES beside them. Dip = N[C@H](C(=O)O)C(c1ccccc1)c1ccccc1
Key:
[1] = test system: A375 cells; assay: Release of HMGB1, Western blot of lysate and supernatant; format: cell-based, human; settings: 35 μM, 5-60 min
Description: A375 cells were seeded with 3×10^5 cells/well in 6-well plates in a complete media, and allowed to adhere overnight. Cells were treated with LTX-315 or LTX-328 at 35 μM, and incubated at 37° C. and 5% CO2 for different time points (5, 10, 15, 30, 60 min), and negative controls were serum-free RPMI-1650. Supernatants (S) were collected and centrifuged at 1,400 g for five minutes, and cell lysates (L) were harvested after washing with PBS twice and then subsequently lysed using a 4× Sample buffer (Invitrogen, number), 0.1 M DTT (Sigma number) and water. Supernatants were concentrated using Amicon Ultra 50K centrifugal filters (Millipore UFC505024), and the cell lysate was sonicated. Both supernatants and lysate were boiled and resolved in a 10% sodium dodecyl sulfate polyacrylamide gel electrophoresis (SDS-PAGE), and then electro transferred to a polyvindiline difluoride (PVDF) membrane (Millipore). The membrane was blocked in 5% milk and incubated with the HMGB1 antibody (rabbit, polyclonal, abcam ab 18256); the membrane was then rinsed several times with TBST, incubated with a horseradish peroxidase (HRP)-conjugated secondary antibody (abcam ab6721), rinsed again with TBST and then developed using WB Luminol Reagent (Santa Cruz Biotechnology, Heidelberg, Germany).

[2] = test system: MCF-7/mdr; format: cell-based, human
Description: (§1) Tumor cells were grown as adherent monolayers or as suspensions at 37° C. in a humidified atmosphere (5% CO2, 95% air). The culture medium was RPMI 1640 containing 2 mM L-glutamine (Lonza, Belgium) and supplemented with 10% fetal bovine serum (FBS, Lonza). For experimental use, the adherent cells were detached from the culture flask by a 5-minute treatment with trypsin-versene (Lonza), diluted in Hanks' medium without calcium or magnesium (Lonza) and neutralized by addition of complete culture medium. Cells were counted in a hemocytometer and their viability was assessed by 0.25% trypan blue exclusion.
(§2) Tumor cells were plated in 96-well flat-bottom microtitration plates (Nunc, Dutscher, Brumath, France) and incubated at 37° C. for 24 hours before treatment in 190 μl of drug-free culture medium supplemented or not with 10% FBS for adherent or suspension growing cell lines, respectively.
(§3) The adherent cell lines were washed once with 200 μl FBS-free culture medium before treatment. Tumor cells were incubated for 4 hours with 10 concentrations of compounds in ¼ dilution step with a top dose of 400 μM (range 4×10^−4 to 4×10^−10 M), with 1% (final concentration) Triton X-100 as positive control and FBS-free culture medium as negative control. The cells (190 μl) were incubated in a 200 μl final volume of FBS-free culture medium containing test substances at 37° C. under 5% CO2.
(§4) Three independent experiments were performed, each concentration being tested in quadruplicate. Control cells were treated with vehicle alone. At the end of treatments, the cytotoxic activity was evaluated by a MTS assay (see § 3.3).
(§5) Like MTT, MTS is bioreduced by cells into a formazan product that is directly soluble in culture medium without processing, unlike MTT.
(§6) At the end of the cells treatment, 40 μl of a 0.22 μm filtered freshly combined solution of MTS (20 ml at 2 mg/ml, Ref G1111, Batch 235897, Exp 03/2009, Promega, Charbonnières, France) and PMS (1 ml at 0.92 mg/ml, Ref P9625, Batch 065K0961, Sigma) in Dulbecco's Phosphate Buffered Saline (DPBS, Ref 17-513Q, Batch 6MB0152, Cambrex), were added in each well. Culture plates were incubated for 2 h at 37° C. Absorbency (OD) were measured at 490 nm in each well using VICTOR^3TM 1420 multilabeled counter (Wallac, PerkinElmer, Courtaboeuf, France).
(§7) [formula] • The OD values are the mean of 4 experimental measurements. • IC50: drug concentration to obtain a 50% inhibition of cell proliferation.
(§8) The dose-response curves were plotted using XLFit 3 (IDBS, United Kingdom). The IC50 determination values were calculated using the XLFit 3 software from semi-log curves. Individual IC50 determination values as well as mean and SD values were generated.
(§9) Resistance index was calculated using the following formula: […]
(§10) Resistance index was calculated for each compound for each couple of sensitive and resistant cell lines. Individual resistance index was calculated when IC50 values of both sensitive and corresponding resistant cell lines were determined within same experiment. In addition, resistance index was also calculated ratio of mean IC50 values obtained during three independent experiments.

[3] = test system: IGROV-1/CDDP; format: cell-based, human
Description: as §1, §2, §3, §4, §5, §6, §7, §8, §9, §10

[4] = test system: EMT-6 murine mammary carcinoma; assay: EMT-6 mammary carcinoma model, two-flank tumours; format: in vivo, mice
Description: The anti-PD-L1 antibody had the following characteristics: ref: BE0101, Bioxcell; clone 10F.9G2; reactivity: mouse; isotype: Rat IgG2b. LTX-315 was prepared at a dose of 0.5 mg/50 μL in 0.9% sodium chloride solution. Anti-PD-L1 antibody was prepared at a concentration in phosphate-buffered saline and was administered at a dose of 10 mg/kg. LTX-315 was injected into the tumour grafted on the right flank of the mice, anti-PD-L1 antibody was injected into the peritoneal cavity of the mice.
Induction of MET-6 tumours in mice: A first tumor was induced by subcutaneous injection of 1×10^6 of EMT-6 cells in 200 μL of RPMI 1640 into the right flank of Balb/C female mice. The day of tumor cell injection in the right flank was considered as DO. A second tumor was induced by subcutaneous injection of 1×10^5 of EMT-6 cells in 200 μL of RPMI 1640 into the left flank of Balb/C female mice. The day of tumor cell injection in the left flank was considered as D3.
Treatment schedule: Mice were randomized according to their body weight on D3 into four groups each of 5 mice (group 1) or 10 mice (groups 3, 5 and 7) using Vivo Manager® software (Biosystemes, Couternon, France). A statistical test (analysis of variance) was performed to test for homogeneity between groups. […]
Mouse monitoring: All study data, including mouse body weight measurements, tumour volume, clinical and mortality records, and treatment were scheduled and recorded on Vivo Manager® database (Biosystemes, Dijon, France). The viability and behaviour was recorded every day. Body weights were measured thrice a week. The length and width of the tumor was measured three times a week with calipers and the volume of the tumour was estimated by the following formula: tumour volume=(width2×length)/2 (SIMPSON-HERREN L. et al. Cancer Chemotherapy Rep., 54: 143, 1970).

Compound: NCCCC[C@H](NC(=O)[C@@H](NC(=O)[C@H](Cc1c[nH]c2ccccc12)NC(=O)[C@H](CCCCN)NC(=O)[C@H](CCCCN)NC(=O)[C@H](Cc1c[nH]c2ccccc12)NC(=O)[C@H](Cc1c[nH]c2ccccc12)NC(=O)[C@H](CCCCN)NC(=O)[C@@H](N)CCCCN)C(c1ccccc1)c1ccccc1)C(N)=O [LTX-315, K-K-W-W-K-K-W-Dip-K-NH2] (H-KKWWKKW[Dip]K-NH2)
- HMGB1 translocation from cell lysate to supernatant [1]: gradual translocation from the cell lysate to the supernatant detected
- Resistance index (RI) ([2]; MCF-7/mdr vs sensitive MCF-7 (doxorubicin resistance)): 1.12
- IC50 ([2]; MCF-7/mdr, resistant): 1960 nM
- Resistance index (RI) ([3]; IGROV-1/CDDP vs IGROV-1 (cisplatin resistance)): 0.50
- IC50 ([3]; IGROV-1/CDDP, resistant): 3.19 µM
- test mice surviving for more than 50 days after tumour induction ([4]; LTX-315 0.5 mg i.t. Q1Dx3, anti-PD-L1 10 mg/kg IP Q2Dx6): 30%
- Proportion of Mice with total tumour regression, Right flank ([4]; treated flank, day 52 or when sacrificed): 30%
- Proportion of Mice with total tumour regression, Left flank ([4]; untreated flank, day 52 or when sacrificed): 10%

From patent publication US12239686B2, “Immune checkpoint inhibitor combinations” (LYTIX BIOPHARMA AS, priority 2014, dated 2025)
